# Data published in US12114657B1, “Compositions for use in animal housing” (priority 2017, dated 2024).
# Details: in vivo
structure (smiles),measurement,value
OO [hydrogen peroxide],antibiotics use as fraction of the normal dose,⅛
same,effect on mortality,reduced mortality
